According to ChEMBL document CHEMBL5303573, “Mapping human microbiome drug metabolism by gut bacteria and their genes” (Nature, 2019):
Blank lines part the entries; values can stand above or below the compound they belong to.

How the values were obtained:
[1] = The drug is tested on Clostridium asparagiforme strain: DSM15981 for biotransformation. The drug concentrations were measured before and after a 12-h incubation by liquid-chromatography-coupled mass spectrometry (LC–MS); assay type: ADME; design: dose 2 uM, timepoint 0 vs 12 hours; conditions: enterocloster asparagiformis, 2 µM
[2] = The drug is tested on Clostridium hathewayi strain: DSM13479 for biotransformation. The drug concentrations were measured before and after a 12-h incubation by liquid-chromatography-coupled mass spectrometry (LC–MS); conditions: hungatella hathewayi, 2 µM
[3] = The drug is tested on Clostridium ramosum strain: DSM1402 for biotransformation. The drug concentrations were measured before and after a 12-h incubation by liquid-chromatography-coupled mass spectrometry (LC–MS); conditions: thomasclavelia ramosa, 2 µM
[4] = The drug is tested on Clostridium scindens strain: ATCC35704 for biotransformation. The drug concentrations were measured before and after a 12-h incubation by liquid-chromatography-coupled mass spectrometry (LC–MS); conditions: 2 µM
[5] = The drug is tested on Clostridium spiroforme strain: DSM1552 for biotransformation. The drug concentrations were measured before and after a 12-h incubation by liquid-chromatography-coupled mass spectrometry (LC–MS); conditions: thomasclavelia spiroformis, 2 µM
[6] = The drug is tested on Clostridium sporogenes strain: ATCC15579 for biotransformation. The drug concentrations were measured before and after a 12-h incubation by liquid-chromatography-coupled mass spectrometry (LC–MS); conditions: 2 µM
[7] = The drug is tested on Clostridium symbiosum strain: ATCC14940 for biotransformation. The drug concentrations were measured before and after a 12-h incubation by liquid-chromatography-coupled mass spectrometry (LC–MS); conditions: 2 µM
[8] = enterocloster bolteae, 12 h, 2 µM
[9] = clostridioides difficile, 12 h, 2 µM
[10] = The drug is tested on Bifidobacterium breve strain: DSM20213 for biotransformation. The drug concentrations were measured before and after a 12-h incubation by liquid-chromatography-coupled mass spectrometry (LC–MS); conditions: 2 µM
[11] = The drug is tested on Bifidobacterium longum subsp. Infantis strain: CCUG52486 for biotransformation. The drug concentrations were measured before and after a 12-h incubation by liquid-chromatography-coupled mass spectrometry (LC–MS); conditions: 2 µM
[12] = The drug is tested on Bifidobacterium ruminantium strain: fecal isolate for biotransformation. The drug concentrations were measured before and after a 12-h incubation by liquid-chromatography-coupled mass spectrometry (LC–MS); conditions: 2 µM
[13] = The drug is tested on Collinsella aerofaciens strain: ATCC25986 for biotransformation. The drug concentrations were measured before and after a 12-h incubation by liquid-chromatography-coupled mass spectrometry (LC–MS); conditions: 2 µM
[14] = The drug is tested on Collinsella intestinalis strain: DSM13280 for biotransformation. The drug concentrations were measured before and after a 12-h incubation by liquid-chromatography-coupled mass spectrometry (LC–MS); conditions: 2 µM
[15] = The drug is tested on Bacteroides caccae strain: ATCC43185 for biotransformation. The drug concentrations were measured before and after a 12-h incubation by liquid-chromatography-coupled mass spectrometry (LC–MS); conditions: 2 µM
[16] = The drug is tested on Bacteroides cellulosilyticus strain: DSM14838 for biotransformation. The drug concentrations were measured before and after a 12-h incubation by liquid-chromatography-coupled mass spectrometry (LC–MS); conditions: 2 µM
[17] = The drug is tested on Bacteroides coprophilus strain: DSM18228 for biotransformation. The drug concentrations were measured before and after a 12-h incubation by liquid-chromatography-coupled mass spectrometry (LC–MS); conditions: 2 µM
[18] = The drug is tested on Bacteroides fragilis strain: HMW610 for biotransformation. The drug concentrations were measured before and after a 12-h incubation by liquid-chromatography-coupled mass spectrometry (LC–MS); conditions: 2 µM
[19] = The drug is tested on Bacteroides fragilis strain: HMW615 for biotransformation. The drug concentrations were measured before and after a 12-h incubation by liquid-chromatography-coupled mass spectrometry (LC–MS); conditions: 2 µM
[20] = The drug is tested on Bacteroides fragilis strain: ATCC43859 for biotransformation. The drug concentrations were measured before and after a 12-h incubation by liquid-chromatography-coupled mass spectrometry (LC–MS); conditions: 2 µM
[21] = The drug is tested on Bacteroides pectinophilus strain: ATCC43243 for biotransformation. The drug concentrations were measured before and after a 12-h incubation by liquid-chromatography-coupled mass spectrometry (LC–MS); conditions: 2 µM
[22] = The drug is tested on Bacteroides uniformis strain: ATCC8492 for biotransformation. The drug concentrations were measured before and after a 12-h incubation by liquid-chromatography-coupled mass spectrometry (LC–MS); conditions: 2 µM
[23] = The drug is tested on Bacteroides vulgatus strain: ATCC8482 for biotransformation. The drug concentrations were measured before and after a 12-h incubation by liquid-chromatography-coupled mass spectrometry (LC–MS); conditions: phocaeicola vulgatus, 2 µM
[24] = The drug is tested on Bacteroides sp. WH2 strain: WH2 for biotransformation. The drug concentrations were measured before and after a 12-h incubation by liquid-chromatography-coupled mass spectrometry (LC–MS); conditions: bacteroides sp. wh2, 12 h, 2 µM
[25] = The drug is tested on Bacteroides xylanisolvens strain: DSM18836 for biotransformation. The drug concentrations were measured before and after a 12-h incubation by liquid-chromatography-coupled mass spectrometry (LC–MS); conditions: 2 µM
[26] = The drug is tested on Odoribacter splanchnicus strain: fecal isolate for biotransformation. The drug concentrations were measured before and after a 12-h incubation by liquid-chromatography-coupled mass spectrometry (LC–MS); conditions: 2 µM
[27] = The drug is tested on Blautia luti strain: DSM14534 for biotransformation. The drug concentrations were measured before and after a 12-h incubation by liquid-chromatography-coupled mass spectrometry (LC–MS); assay type: ADME; design: dose 2 uM, timepoint 0 vs 12 hours; conditions: 2 µM
[28] = The drug is tested on Enterococcus faecalis strain: V583 for biotransformation. The drug concentrations were measured before and after a 12-h incubation by liquid-chromatography-coupled mass spectrometry (LC–MS); conditions: 2 µM
[29] = The drug is tested on Eubacterium hallii strain: DSM3353 for biotransformation. The drug concentrations were measured before and after a 12-h incubation by liquid-chromatography-coupled mass spectrometry (LC–MS); conditions: anaerobutyricum hallii, 2 µM
[30] = The drug is tested on Ruminococcus gnavus strain: ATCC29149 for biotransformation. The drug concentrations were measured before and after a 12-h incubation by liquid-chromatography-coupled mass spectrometry (LC–MS); conditions: mediterraneibacter gnavus, 2 µM
[31] = The drug is tested on Ruminococcus torques strain: ATCC27756 for biotransformation. The drug concentrations were measured before and after a 12-h incubation by liquid-chromatography-coupled mass spectrometry (LC–MS); assay type: ADME; design: dose 2 uM, timepoint 0 vs 12 hours; conditions: 2 µM
[32] = The drug is tested on Edwardsiella tarda strain: ATCC23685 for biotransformation. The drug concentrations were measured before and after a 12-h incubation by liquid-chromatography-coupled mass spectrometry (LC–MS); conditions: 2 µM
[33] = The drug is tested on Enterobacter cancerogenus strain: ATCC35316 for biotransformation. The drug concentrations were measured before and after a 12-h incubation by liquid-chromatography-coupled mass spectrometry (LC–MS); conditions: 2 µM
[34] = The drug is tested on Providencia stuartii strain: ATCC25827 for biotransformation. The drug concentrations were measured before and after a 12-h incubation by liquid-chromatography-coupled mass spectrometry (LC–MS); conditions: 2 µM
[35] = bifidobacterium adolescentis, 12 h, 2 µM
Description: The drug is tested on Bifidobacterium adolescentis strain: ATCC 15703 for biotransformation. The drug concentrations were measured before and after a 12-h incubation by liquid-chromatography-coupled mass spectrometry (LC–MS)

[36] = bacteroides eggerthii, 12 h, 2 µM
Description: The drug is tested on Bacteroides eggerthii strain: DSM20697 for biotransformation. The drug concentrations were measured before and after a 12-h incubation by liquid-chromatography-coupled mass spectrometry (LC–MS)

[37] = bacteroides fragilis, 12 h, 2 µM
Description: The drug is tested on Bacteroides fragilis strain: NCTC 9343 for biotransformation. The drug concentrations were measured before and after a 12-h incubation by liquid-chromatography-coupled mass spectrometry (LC–MS)

[38] = bacteroides fragilis, 12 h, 2 µM; remark: listed apart in the source
Description: The drug is tested on Bacteroides fragilis strain: DS-208 for biotransformation. The drug concentrations were measured before and after a 12-h incubation by liquid-chromatography-coupled mass spectrometry (LC–MS)

[39] = bacteroides intestinalis, 12 h, 2 µM
Description: The drug is tested on Bacteroides intestinalis strain: DSM17393 for biotransformation. The drug concentrations were measured before and after a 12-h incubation by liquid-chromatography-coupled mass spectrometry (LC–MS)

[40] = bacteroides stercoris, 12 h, 2 µM
Description: The drug is tested on Bacteroides stercoris strain: ATCC43183 for biotransformation. The drug concentrations were measured before and after a 12-h incubation by liquid-chromatography-coupled mass spectrometry (LC–MS)

[41] = bacteroides thetaiotaomicron, 12 h, 2 µM
Description: The drug is tested on Bacteroides thetaiotaomicron strain: VPI-5482 for biotransformation. The drug concentrations were measured before and after a 12-h incubation by liquid-chromatography-coupled mass spectrometry (LC–MS)

[42] = bacteroides thetaiotaomicron, 12 h, 2 µM; remark: listed apart in the source
Description: The drug is tested on Bacteroides thetaiotaomicron strain: 3731 for biotransformation. The drug concentrations were measured before and after a 12-h incubation by liquid-chromatography-coupled mass spectrometry (LC–MS)

[43] = bacteroides thetaiotaomicron, 12 h, 2 µM; remark: listed apart in the source
Description: The drug is tested on Bacteroides thetaiotaomicron strain: 7330 for biotransformation. The drug concentrations were measured before and after a 12-h incubation by liquid-chromatography-coupled mass spectrometry (LC–MS)

[44] = parabacteroides distasonis, 12 h, 2 µM
Description: The drug is tested on Parabacteroides distasonis strain: ATCC8503 for biotransformation. The drug concentrations were measured before and after a 12-h incubation by liquid-chromatography-coupled mass spectrometry (LC–MS)

[45] = parabacteroides johnsonii, 12 h, 2 µM
Description: The drug is tested on Parabacteroides johnsonii strain: DSM18315 for biotransformation. The drug concentrations were measured before and after a 12-h incubation by liquid-chromatography-coupled mass spectrometry (LC–MS)

[46] = segatella copri, 12 h, 2 µM
Description: The drug is tested on Prevotella copri strain: DSM18205 for biotransformation. The drug concentrations were measured before and after a 12-h incubation by liquid-chromatography-coupled mass spectrometry (LC–MS)

[47] = anaerostipes sp., 12 h, 2 µM
Description: The drug is tested on Anaerostipes sp. strain: fecal isolate for biotransformation. The drug concentrations were measured before and after a 12-h incubation by liquid-chromatography-coupled mass spectrometry (LC–MS)

[48] = limosilactobacillus reuteri cf48-3a, 12 h, 2 µM
Description: The drug is tested on Lactobacillus reuteri CF48-3A strain: BEI HM-102 for biotransformation. The drug concentrations were measured before and after a 12-h incubation by liquid-chromatography-coupled mass spectrometry (LC–MS)

[49] = roseburia intestinalis, 12 h, 2 µM
Description: The drug is tested on Roseburia intestinalis strain: L1-82 for biotransformation. The drug concentrations were measured before and after a 12-h incubation by liquid-chromatography-coupled mass spectrometry (LC–MS)

[50] = victivallis vadensis, 12 h, 2 µM
Description: The drug is tested on Victivallis vadensis strain: ATCC BAA-548 for biotransformation. The drug concentrations were measured before and after a 12-h incubation by liquid-chromatography-coupled mass spectrometry (LC–MS)

[51] = akkermansia muciniphila, 12 h, 2 µM
Description: The drug is tested on Akkermansia muciniphila strain: ATCC BAA-835 for biotransformation. The drug concentrations were measured before and after a 12-h incubation by liquid-chromatography-coupled mass spectrometry (LC–MS)

SMILES: Br.NC(=O)C(c1ccccc1)(c1ccccc1)[C@@H]1CCN(CCc2ccc3c(c2)CCO3)C1 [DARIFENACIN HYDROBROMIDE]
Bacterial Biotransformation [1]: Compound NOT metabolized
Bacterial Biotransformation [2]: Compound NOT metabolized
Bacterial Biotransformation [3]: Compound NOT metabolized
Bacterial Biotransformation [4]: Compound NOT metabolized
Bacterial Biotransformation [5]: Compound NOT metabolized
Bacterial Biotransformation [6]: Compound NOT metabolized
Bacterial Biotransformation [7]: Compound NOT metabolized
Bacterial Biotransformation [8]: Compound NOT metabolized
Bacterial Biotransformation [9]: Compound NOT metabolized

Bacterial Biotransformation [10]: Compound NOT metabolized
Bacterial Biotransformation [11]: Compound NOT metabolized
Bacterial Biotransformation [12]: Compound NOT metabolized
Bacterial Biotransformation [13]: Compound NOT metabolized
Bacterial Biotransformation [14]: Compound NOT metabolized
Bacterial Biotransformation [15]: Compound NOT metabolized
Bacterial Biotransformation [16]: Compound NOT metabolized
Bacterial Biotransformation [17]: Compound NOT metabolized
Bacterial Biotransformation [18]: Compound NOT metabolized
Bacterial Biotransformation [19]: Compound NOT metabolized
Bacterial Biotransformation [20]: Compound NOT metabolized
Bacterial Biotransformation [21]: Compound NOT metabolized
Bacterial Biotransformation [22]: Compound NOT metabolized
Bacterial Biotransformation [23]: Compound NOT metabolized
Bacterial Biotransformation [24]: Compound NOT metabolized
Bacterial Biotransformation [25]: Compound NOT metabolized
Bacterial Biotransformation [26]: Compound NOT metabolized
Bacterial Biotransformation [27]: Compound NOT metabolized
Bacterial Biotransformation [1]: Compound NOT metabolized
Bacterial Biotransformation [3]: Compound NOT metabolized
Bacterial Biotransformation [7]: Compound NOT metabolized
Bacterial Biotransformation [28]: Compound NOT metabolized
Bacterial Biotransformation [29]: Compound NOT metabolized
Bacterial Biotransformation [30]: Compound NOT metabolized
Bacterial Biotransformation [31]: Compound NOT metabolized
Bacterial Biotransformation [32]: Compound NOT metabolized
Bacterial Biotransformation [33]: Compound NOT metabolized
Bacterial Biotransformation [34]: Compound NOT metabolized
Bacterial Biotransformation [35]: Compound NOT metabolized
Bacterial Biotransformation [36]: Compound NOT metabolized
Bacterial Biotransformation [37]: Compound NOT metabolized
Bacterial Biotransformation [38]: Compound NOT metabolized
Bacterial Biotransformation [39]: Compound NOT metabolized
Bacterial Biotransformation [40]: Compound NOT metabolized
Bacterial Biotransformation [41]: Compound NOT metabolized
Bacterial Biotransformation [42]: Compound NOT metabolized
Bacterial Biotransformation [43]: Compound NOT metabolized
Bacterial Biotransformation [44]: Compound NOT metabolized
Bacterial Biotransformation [45]: Compound NOT metabolized
Bacterial Biotransformation [46]: Compound NOT metabolized
Bacterial Biotransformation [47]: Compound NOT metabolized
Bacterial Biotransformation [48]: Compound NOT metabolized
Bacterial Biotransformation [49]: Compound NOT metabolized
Bacterial Biotransformation [50]: Compound NOT metabolized
Bacterial Biotransformation [51]: Compound NOT metabolized
SMILES: Cc1ccccc1N1C(=O)c2cc(S(N)(=O)=O)c(Cl)cc2NC1C (centres undefined) [METOLAZONE]
